Reference: article PMC7438494 (Communications Biology, 2020)
Read-outs that look alike come from different tables or passages of the source.

Target: human ATP synthase (Homo sapiens, UniProt P00846+P05496)
Test: biochemical
Assay type: biochemical

SMILES: COc1nc2ccc(Br)cc2cc1[C@@H](c1ccccc1)[C@@](O)(CCN(C)C)c1cccc2ccccc12 [BDQ, Bedaquiline]
- activity at 1 µM (Human Mito, 4th exp (18_12_26), BDQ 1 uM, read-out: Cyanide sensitive % activity): 8.67%
- activity at 2 µM (Human Mito, 4th exp (18_12_26), BDQ 2 uM, read-out: Cyanide sensitive % activity): 2.82%
- activity at 5 µM (Human Mito, 4th exp (18_12_26), BDQ 5 uM, read-out: Cyanide sensitive % activity): -2.55%
- activity at 10 µM (Human Mito, 4th exp (18_12_26), BDQ 10 uM, read-out: Cyanide sensitive % activity): 0%
- Cyanide sensitive (Human Mito, 5th exp (19), BDQ in DMSO, Bedaquiline 5e-5 μM, 60 min): 8.081 nmol/min/mg
- Cyanide sensitive (Human Mito, 5th exp (19), BDQ in DMSO, Bedaquiline 0.0005 μM, 60 min): 7.799 nmol/min/mg
- activity at 0.0005 µM (Human Mito, 5th exp (19), BDQ in DMSO, Bedaquiline 0.0005 μM, 60 min, read-out: % activity): 75.5%
- Cyanide sensitive (Human Mito, 5th exp (19), BDQ in DMSO, Bedaquiline 0.005 μM, 60 min): 7.932 nmol/min/mg
- activity at 0.005 µM (Human Mito, 5th exp (19), BDQ in DMSO, Bedaquiline 0.005 μM, 60 min, read-out: % activity): 71.9%
- Cyanide sensitive (Human Mito, 5th exp (19), BDQ in DMSO, Bedaquiline 0.1 μM, 60 min): 7.371 nmol/min/mg
- activity at 0.1 µM (Human Mito, 5th exp (19), BDQ in DMSO, Bedaquiline 0.1 μM, 60 min, read-out: % activity): 76.1%
- Cyanide sensitive (Human Mito, 5th exp (19), BDQ in DMSO, Bedaquiline 0.2 μM, 60 min): 5.1485 nmol/min/mg
- activity at 0.2 µM (Human Mito, 5th exp (19), BDQ in DMSO, Bedaquiline 0.2 μM, 60 min, read-out: % activity): 61.2%
- Cyanide sensitive (Human Mito, 5th exp (19), BDQ in DMSO, Bedaquiline 0.5 μM, 60 min): 7.123 nmol/min/mg
- activity at 0.5 µM (Human Mito, 5th exp (19), BDQ in DMSO, Bedaquiline 0.5 μM, 60 min, read-out: % activity): 73.7%
- Cyanide sensitive (Human Mito, 5th exp (19), BDQ in DMSO, Bedaquiline 0.65 μM, 60 min): 5.712 nmol/min/mg
- activity at 0.65 µM (Human Mito, 5th exp (19), BDQ in DMSO, Bedaquiline 0.65 μM, 60 min, read-out: % activity): 69.7%
- Cyanide sensitive (Human Mito, 5th exp (19), BDQ in DMSO, Bedaquiline 1 μM, 60 min): -0.04135 nmol/min/mg
- activity at 1 µM (Human Mito, 5th exp (19), BDQ in DMSO, Bedaquiline 1 μM, 60 min, read-out: % activity): 11.1%
- Cyanide sensitive (Human Mito, 5th exp (19), BDQ in DMSO, Bedaquiline 2 μM, 60 min): -0.9975 nmol/min/mg
- activity at 2 µM (Human Mito, 5th exp (19), BDQ in DMSO, Bedaquiline 2 μM, 60 min, read-out: % activity): 5%
- Cyanide sensitive (Human Mito, 5th exp (19), BDQ in DMSO, Bedaquiline 5 μM, 60 min): -2.758 nmol/min/mg
- activity at 5 µM (Human Mito, 5th exp (19), BDQ in DMSO, Bedaquiline 5 μM, 60 min, read-out: % activity): 0.69%
- Cyanide sensitive (Human Mito, 5th exp (19), BDQ in DMSO, Bedaquiline 10 μM, 60 min): -0.848 nmol/min/mg
- activity at 10 µM (Human Mito, 5th exp (19), BDQ in DMSO, Bedaquiline 10 μM, 60 min, read-out: % activity): 3.96%
- activity at 0.0005 µM (Human Mito, 5th exp (19_01_02), BDQ 0.0005 uM, read-out: Cyanide sensitive % activity): 75.5%
- activity at 0.005 µM (Human Mito, 5th exp (19_01_02), BDQ 0.005 uM, read-out: Cyanide sensitive % activity): 71.9%
- activity at 0.1 µM (Human Mito, 5th exp (19_01_02), BDQ 0.1 uM, read-out: Cyanide sensitive % activity): 76.1%
- activity at 0.2 µM (Human Mito, 5th exp (19_01_02), BDQ 0.2 uM, read-out: Cyanide sensitive % activity): 61.2%
- activity at 0.5 µM (Human Mito, 5th exp (19_01_02), BDQ 0.5 uM, read-out: Cyanide sensitive % activity): 73.7%
- activity at 0.65 µM (Human Mito, 5th exp (19_01_02), BDQ 0.65 uM, read-out: Cyanide sensitive % activity): 69.7%
- activity at 1 µM (Human Mito, 5th exp (19_01_02), BDQ 1 uM, read-out: Cyanide sensitive % activity): 11.1%
- activity at 2 µM (Human Mito, 5th exp (19_01_02), BDQ 2 uM, read-out: Cyanide sensitive % activity): 5%
- activity at 5 µM (Human Mito, 5th exp (19_01_02), BDQ 5 uM, read-out: Cyanide sensitive % activity): 0.69%
- activity at 10 µM (Human Mito, 5th exp (19_01_02), BDQ 10 uM, read-out: Cyanide sensitive % activity): 3.96%
- Cyanide sensitive % activity, Average (Human Mito, average of experiments, BDQ 5e-6 uM): 75.05%
- Cyanide sensitive % activity, Average (Human Mito, average of experiments, BDQ 5e-5 uM): 71.33%
- activity at 0.0005 µM (Human Mito, average of experiments, BDQ 0.0005 uM, read-out: Cyanide sensitive % activity, Average): 78.5%
- activity at 0.005 µM (Human Mito, average of experiments, BDQ 0.005 uM, read-out: Cyanide sensitive % activity, Average): 68%
- activity at 0.1 µM (Human Mito, average of experiments, BDQ 0.1 uM, read-out: Cyanide sensitive % activity, Average): 70.6%
- activity at 0.2 µM (Human Mito, average of experiments, BDQ 0.2 uM, read-out: Cyanide sensitive % activity, Average): 57.6%
- activity at 0.5 µM (Human Mito, average of experiments, BDQ 0.5 uM, read-out: Cyanide sensitive % activity, Average): 52.1%
- activity at 0.65 µM (Human Mito, average of experiments, BDQ 0.65 uM, read-out: Cyanide sensitive % activity, Average): 44.5%
- activity at 0.85 µM (Human Mito, average of experiments, BDQ 0.85 uM, read-out: Cyanide sensitive % activity, Average): 27.4%
- activity at 1 µM (Human Mito, average of experiments, BDQ 1 uM, read-out: Cyanide sensitive % activity, Average): 6.29%
- activity at 2 µM (Human Mito, average of experiments, BDQ 2 uM, read-out: Cyanide sensitive % activity, Average): 0.46%
- activity at 5 µM (Human Mito, average of experiments, BDQ 5 uM, read-out: Cyanide sensitive % activity, Average): -2%
- activity at 10 µM (Human Mito, average of experiments, BDQ 10 uM, read-out: Cyanide sensitive % activity, Average): 0.62%
- activity at 0.0005 µM (Human Mito, plotted duplicates, first column, BDQ 0.0005 uM, read-out: % activity): 81.5%
- activity at 0.005 µM (Human Mito, plotted duplicates, first column, BDQ 0.005 uM, read-out: % activity): 88.5%
- activity at 0.1 µM (Human Mito, plotted duplicates, first column, BDQ 0.1 uM, read-out: % activity): 71.2%
- activity at 0.2 µM (Human Mito, plotted duplicates, first column, BDQ 0.2 uM, read-out: % activity): 59.5%
- activity at 0.5 µM (Human Mito, plotted duplicates, first column, BDQ 0.5 uM, read-out: % activity): 51.2%
- activity at 0.65 µM (Human Mito, plotted duplicates, first column, BDQ 0.65 uM, read-out: % activity): 37.6%
- activity at 0.85 µM (Human Mito, plotted duplicates, first column, BDQ 0.85 uM, read-out: % activity): 33.1%
- activity at 1 µM (Human Mito, plotted duplicates, first column, BDQ 1 uM, read-out: % activity): 8.67%
- activity at 2 µM (Human Mito, plotted duplicates, first column, BDQ 2 uM, read-out: % activity): 2.82%
- activity at 5 µM (Human Mito, plotted duplicates, first column, BDQ 5 uM, read-out: % activity): -2.55%
- activity at 10 µM (Human Mito, plotted duplicates, first column, BDQ 10 uM, read-out: % activity): -2.1%
- activity at 0.0005 µM (Human Mito, plotted duplicates, second column, BDQ 0.0005 uM, read-out: % activity): 75.5%
- activity at 0.005 µM (Human Mito, plotted duplicates, second column, BDQ 0.005 uM, read-out: % activity): 71.9%
- activity at 0.1 µM (Human Mito, plotted duplicates, second column, BDQ 0.1 uM, read-out: % activity): 76.1%
- activity at 0.2 µM (Human Mito, plotted duplicates, second column, BDQ 0.2 uM, read-out: % activity): 61.2%
- activity at 0.5 µM (Human Mito, plotted duplicates, second column, BDQ 0.5 uM, read-out: % activity): 58%
- activity at 0.65 µM (Human Mito, plotted duplicates, second column, BDQ 0.65 uM, read-out: % activity): 40%
- activity at 0.85 µM (Human Mito, plotted duplicates, second column, BDQ 0.85 uM, read-out: % activity): 32.5%
- activity at 1 µM (Human Mito, plotted duplicates, second column, BDQ 1 uM, read-out: % activity): 11.1%
- activity at 2 µM (Human Mito, plotted duplicates, second column, BDQ 2 uM, read-out: % activity): 1.13%
- activity at 5 µM (Human Mito, plotted duplicates, second column, BDQ 5 uM, read-out: % activity): 0.69%
- activity at 10 µM (Human Mito, plotted duplicates, second column, BDQ 10 uM, read-out: % activity): 3.96%
- extent of inhibition of ATP synthesis of the human enzyme (in words): nearly completely
- activity at 0.0005 µM (read-out: % activity): 89.6%
- activity at 0.1 µM (read-out: % activity): 81.7%
- activity at 0.2 µM (read-out: % activity): 77.1%
- activity at 0.5 µM (read-out: % activity): 62.5%
- activity at 0.85 µM (read-out: % activity): 54%
- activity at 1 µM (read-out: % activity): 48.4%
- activity at 2 µM (read-out: % activity): 45.8%
- activity at 10 µM (read-out: % activity): 36.3%
- inhibition at 0.2 µM (read-out: % inhibition): 22.9%
- inhibition at 0.5 µM (read-out: % inhibition): 37.5%
- inhibition at 1 µM (read-out: % inhibition): 57.4%
- inhibition at 2 µM (read-out: % inhibition): 54.2%
- inhibition at 10 µM (read-out: % inhibition): 63.7%
